Experimental data: paper PMC2959128 (Journal of the American Chemical Society, 2010)

Molecular target: T1, phosphopantetheinyl transferase Sfp (Bacillus subtilis, UniProt P39135)
T1 sequence (P39135 1-224): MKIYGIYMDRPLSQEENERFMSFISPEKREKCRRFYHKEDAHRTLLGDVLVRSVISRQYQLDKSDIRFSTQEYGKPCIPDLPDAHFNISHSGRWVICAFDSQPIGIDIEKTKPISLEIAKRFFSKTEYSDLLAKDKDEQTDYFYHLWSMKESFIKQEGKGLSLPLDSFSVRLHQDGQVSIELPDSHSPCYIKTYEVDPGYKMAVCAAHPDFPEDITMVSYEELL
Test: acyl-phosphopantetheinyl transfer to apo-ACP
Format: biochemical
Details: DEBS apo-ACP6 as acceptor

Row | Compound | acyl-phosphopantetheinyl transfer to apo-ACP; LC-ESI(+)-MS
1 | CC[C@@H](O)[C@@H](C)C(=O)SCCNC(=O)CCNC(=O)[C@H](O)C(C)(C)COP(=O)(O)OP(=O)(O)OC[C@H]1O[C@@H](n2cnc3c(N)ncnc32)[C@H](O)[C@@H]1OP(=O)(O)O [2a-SCoA] | from DEBS apo-ACP6 using the phosphopantetheinyl transferase Sfp
2 | CC/C=C(\C)C(=O)SCCNC(=O)CCNC(=O)[C@H](O)C(C)(C)COP(=O)(O)OP(=O)(O)OC[C@H]1O[C@@H](n2cnc3c(N)ncnc32)[C@H](O)[C@@H]1OP(=O)(O)O [3-SCoA] | from DEBS apo-ACP6 using the phosphopantetheinyl transferase Sfp
